# Measurements as given in US12428377B2, “Sodium-hydrogen exchanger 3 inhibitor compounds” (Eli Lilly and Company, priority 2019, dated 2025).
# Values joined by “and” are separate entries in the source; they are usually repeats but may differ in a detail not shown here. Identical values can stand only once.
# How the values were obtained:
# Type in all cases: in vivo, rat
# [1] = test system: male Sprague Dawley rats; test: Radiolabeled phosphate absorption in rats, Studies 1-3 (plasma radioactivity); conditions: for Absorption (vs. vehicle control): mean ± SEM
# Procedure: Effect of Example 2 in Combination with an NPT2b Inhibitor (Compound A) on Phosphate Absorption in Rats
# NPT2b inhibitor dosing solutions: Compound A and poly-1-vinylpyrrolidone-co-vinyl acetate (PVP-VA, Sigma-Aldrich) are weighed into a bottle at a ratio of 30% Compound A and 70% PVP-VA by weight. A clear yellow solution is prepared by diluting the mixture in MeOH followed by the addition of 2 mol NaOH per mol Compound A using 5 N NaOH. The solution is spray dried by a stream of hot nitrogen and the solid dispersion powder is collected and then further dried in a vacuum oven. Doses for the sprayed dried solid dispersion (SDD) are expressed as active pharmaceutical ingredient (API) throughout.
# To make the Compound A dosing solution, an appropriate amount of Compound A SDD is weighed in a vial and dissolved in water (10 mL/kg dosing volume). […] The subsequent solutions for lower doses are prepared by serial dilutions with water. PVP-VA at 7 mg/mL is used as a vehicle control.
# NHE3 inhibitor dosing solutions: To make the Example 2 dosing solution, an appropriate amount of the compound is weighed in a vial and dissolved in 1% HEC (10 mL/kg dosing volume). […] The subsequent solutions for lower doses are prepared by serial dilutions with HEC.
# To make the radiolabeled phosphate dosing solution, a 16.25 mM Na2HPO4, 0.9% saline, pH 7.4 solution is prepared and filtered using a sterile, 0.22 μm, polyethersulfone, Millex-GP Syringe Filter Unit (EMD Millipore). Radioactive phosphate (H3^33PO4, Perkin Elmer) is added at about 2.5 μCi per mL of the solution and filtered again.
# Three separate studies are performed. In these studies, male Sprague Dawley rats, are randomized into groups with approximately equal mean body weights. Following an overnight fast, all the animals are dosed at 10 mL/kg with either vehicle, varying doses of Compound A (Study 1), varying doses of Example 2 (Study 2) or 1.2 mg/kg Compound A and varying doses of Example 2 (Study 3). 15 min later, radiolabeled phosphate is orally dosed in a 2 mL volume. 15 min later, blood is collected and plasma is prepared. Radioactivity (dpm) in 50 μL plasma is measured by scintillation counting and is used to calculate phosphate absorption. The results are normalized with the vehicle controls representing 100% absorption. The curves are fitted with nonlinear regression with variable slope using GraphPad Prism 6 to calculate the ED50 and Emax given in Table 7. […] No curve fit was performed for Compound A alone in Study 1.
# [2] = test system: male Sprague Dawley rats; test: Phosphate absorption 15 min after radiolabeled phosphate (Example 2, Compound A, combination); conditions: Compound A 10 mg/kg, plasma 15 min after radiolabeled phosphate, P=0.013 versus vehicle control
# Procedure: Effect of Example 2 in Combination with an NPT2b Inhibitor (Compound A) on Phosphate Absorption and Intestinal Phosphate Retention in Rats
# (§1) The purpose of this study is to investigate in rats the effect of Example 2, Compound A, and an Example 2/Compound A combination on phosphate absorption 15 min after dosing the compounds and the phosphate retained in the intestine 4.25 h after dosing the compounds. The latter is a measure of the oral phosphate load which is absorbed over an extended period.
# (§2) Two vehicles are used in this study: 1) 1% HEC and 2) 0.46% poly-1-vinylpyrrolidone-co-vinyl acetate in water (PVP-VA vehicle). The vehicle control group in this study receives a 1:1 combination of the two vehicles.
# The Example 2, Compound A and phosphate dosing solutions are prepared similarly as described above, except the doses are 0.4 mg/kg for Example 2 and 10 mg/kg for Compound A and they are prepared at a concentration where they would be dosed in a 5 mL/kg volume. […]
# Male Sprague Dawley rats are fasted 4 h and then administered appropriate vehicles, 10 mg/kg Compound A, 0.4 mg/kg Example 2, or a combination of both compounds. […] Radioactivity in plasma is measured by scintillation counting and used to calculate the inhibition of phosphate absorption. […] Statistical significance is determined by ANOVA with a Dunnett's comparison to the Example 2/Compound A combination using JMP 12.1.
# [3] = test system: male Sprague Dawley rats; test: Intestinal phosphate retention: percent radiolabeled dose recovered in gastrointestinal tract; conditions: Compound A 10 mg/kg, 4 h after radiolabeled phosphate
# Procedure: as §1, §2
# The Example 2, Compound A and phosphate dosing solutions are prepared similarly as described above, except the doses are 0.4 mg/kg for Example 2 and 10 mg/kg for Compound A and they are prepared at a concentration where they would be dosed in a 5 mL/kg volume. The Example 2 and Compound A alone groups are mixed 1:1 with the vehicle of the other compound, while the Compound A and Example 2 are mixed 1:1 prior to dosing. The final dosing volume is 10 mL/kg in all cases.
# 4 h after the radiolabeled phosphate solution is dosed, stomach, small intestine, large intestine, and feces are collected, weighed and digested with 1N NaOH overnight at 37° C. Radioactivity in each fraction is measured by scintillation counting.
# The percent dose recovered in gastrointestinal tract is defined as radioactivity recovered in stomach, small intestine, large intestine and feces compared to the amount dosed. Data is presented as mean±SEM with animal numbers equal to 8 for the groups. Statistical significance is determined by ANOVA with a Dunnett's comparison to the Example 2/Compound A combination using JMP 12.1.
# The percent dose recovered in gastrointestinal tract data is further analyzed by a two-way ANOVA in JMP 12.1 to test for additivity of the effects of Example 2 and Compound A on inhibiting phosphate absorption. […] That is, the inhibitory effect of the combination is greater than the sum of the individual compound effects.
smiles,measurement,setting,value
"CC1(C)CN(C(=O)NCCCCO)CCN1Cc1cccc(C(=O)Nc2sc3c(c2C(=O)Nc2cc(F)c(CCc4ccc(C(=O)O)cc4)c(F)c2)CCCC3)c1 [Compound A, reference compound]",Absorption (vs. vehicle control),"[1]; Study 1, rats, Compound A 0.01 mg/kg",94.39 ± 7.88%
same,Absorption (vs. vehicle control),"[1]; Study 1, rats, Compound A 0.1 mg/kg",87.61 ± 6.08%
same,Absorption (vs. vehicle control),"[1]; Study 1, rats, Compound A 1 mg/kg",87.64 ± 7.26%
same,Absorption (vs. vehicle control),"[1]; Study 1, rats, Compound A 10 mg/kg",81.53 ± 5.50%
same,% Inhibition at the highest dose (phosphate absorption),"[1]; Study 1, rats, Compound A highest dose tested (10 mg/kg)",18%
same,Absorption (vs. vehicle control),"[1]; Study 3, rats, Vehicle + Compound A 1.2 mg/kg",71.00 ± 11.63%
same,Inhibition of phosphate absorption,[2],35%
same,"Percent Dose Recovered, Feces",[3],<0.1%
same,"Percent Dose Recovered, Large Intestine",[3]; mean ± SEM,18.43 ± 2.03%
same,"Percent Dose Recovered, Small Intestine",[3]; mean ± SEM,8.98 ± 0.48%
same,"Percent Dose Recovered, Stomach",[3]; mean ± SEM,4.86 ± 1.13%
same,"Percent Dose Recovered, Total","[3]; mean ± SEM, 10 mg/kg",32% and 32.27 ± 1.38%
